According to patent publication US20100190856A1, “Novel Polyhydroxylated Compounds as Fatty Acid Synthase (FASN) Inhibitors” (UNIVERSIDAD COMPLUTENSE DE MADRID, priority 2007, published 2010):
“Also recorded” adds a separate entry of the source.

How the values were obtained:
[1] = test system: MDA-MB-231 breast cancer cells; assay: MTT cytotoxicity assay, MDA-MB-231 breast cancer cells; assay type: cell-based, human; details: Homo sapiens, MDA-MB-231 cells, 48 h, read-out: IC50, growth inhibition, MDA-MB-231
Description: (§1) MCF-7 and MDA-MB-231 breast cancer cells were obtained from the American Type Culture Collection (ATCC) and were routinely grown in Dulbecco's modified Eagle's medium (DMEM, Gibco) containing 10% fetal bovine serum (FBS, Bio-Whittaker), 1% L-glutamine, 1% sodium pyruvate, 50 U/mL penicillin and 50 μg/mL streptomycin. SK-Br3 breast cancer cells were obtained from Eucellbank (Universidad de Barcelona, Spain) and were passaged in McCoy's 5 A medium containing 10% FBS, 1% L-glutamine, 1% sodium pyruvate, 50 U/mL penicillin and 50 μg/mL streptomycin. Non-malignant fibroblasts N-1 were obtained from Eucellbank (Universidad de Barcelona, Spain) and were passaged in DMEM medium containing 10% FBS, 1% L-glutamine, 1% sodium pyruvate, 50 U/mL penicillin and 50 μg/mL streptomycin. The cells remained free of Mycoplasma and were propagated in adherent culture according to established protocols. Cells were maintained at 37° C. in a humidified atmosphere of 95% air and 5% CO2.
(§2) Drug sensitivity was determined using a standard colorimetric MTT (3-4,5-dimethylthiazol-2-yl-2,5-diphenyltetrazolium bromide) assay. Briefly, cells were plated out at a density of 7×10^3 cells/100 μL/well in 96-well microtitre plates and allowed an overnight period for attachment. Then the medium was removed and fresh medium along with various concentrations of the tested compound were added to the cultures for a period of 48 h. Following the treatment, the cells were fed with drug-free medium (100 μL/well) and 10 μL of MTT solution (5 mg/mL; Sigma, St. Louis, Mo.), and the incubation was prolonged for 3 h at 37° C. After carefully removing the supernatants, the MTT-formazan crystals formed by metabolically viable cells were dissolved in dimethyl sulphoxide (100 μL/well) and the absorbance was measured at 570 nm in a multi-well plate reader (Model Anthos Labtec 2010 1.7 reader).

[2] = test system: Non-malignant fibroblasts N-1; assay: MTT cytotoxicity assay, non-malignant fibroblasts N-1; assay type: cell-based; details: for IC50: Fibroblast, non-malignant fibroblasts, MTT, 48 h, read-out: IC50, growth inhibition, Fibroblasts; for effect on non-malignant cells / normal fibroblasts: at concentrations similar to IC50; for effects in cell death / morphology changes in non-malignant cells: up to doses three-fold their cytotoxic IC50 value in tumoral cells
Description: as §1, §2

[3] = target: T1, rat CPT-1 (Rattus norvegicus, UniProt Q63704); assay: Carnitine palmitoyltransferase 1 (CPT-1) assay, yeast mitochondria; assay type: biochemical; parameters: % CPT-1 activity: concentration or dose not given beside the values; details: for % CPT-1 activity: % of DMSO control, mitochondria of P. pastoris expressing rat CPT-1
T1 construct: made in house; host or cells: Pichia pastoris GS115 (isolated intact mitochondria)
T1 sequence (Q63704 1-772): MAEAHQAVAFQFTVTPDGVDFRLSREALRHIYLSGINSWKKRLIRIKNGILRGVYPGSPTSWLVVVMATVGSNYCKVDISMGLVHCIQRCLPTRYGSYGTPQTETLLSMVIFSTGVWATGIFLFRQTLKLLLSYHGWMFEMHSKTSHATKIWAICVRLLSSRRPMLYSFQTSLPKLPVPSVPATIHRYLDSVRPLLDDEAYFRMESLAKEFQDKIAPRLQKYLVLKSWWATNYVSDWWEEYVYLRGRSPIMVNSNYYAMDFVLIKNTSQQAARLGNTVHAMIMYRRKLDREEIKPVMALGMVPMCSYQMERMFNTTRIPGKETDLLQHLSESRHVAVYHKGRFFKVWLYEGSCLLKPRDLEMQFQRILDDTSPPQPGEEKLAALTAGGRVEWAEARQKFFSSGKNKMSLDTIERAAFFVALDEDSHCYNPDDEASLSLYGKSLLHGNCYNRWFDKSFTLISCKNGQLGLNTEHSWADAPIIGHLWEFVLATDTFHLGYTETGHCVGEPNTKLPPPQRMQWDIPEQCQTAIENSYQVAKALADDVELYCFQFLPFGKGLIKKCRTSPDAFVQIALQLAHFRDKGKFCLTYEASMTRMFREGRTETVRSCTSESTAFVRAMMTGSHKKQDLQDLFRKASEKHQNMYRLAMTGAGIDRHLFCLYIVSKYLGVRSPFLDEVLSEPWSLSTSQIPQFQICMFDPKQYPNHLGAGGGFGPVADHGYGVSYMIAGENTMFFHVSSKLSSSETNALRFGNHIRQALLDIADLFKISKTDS
Text: The expression plasmid pRCPT-Iβ/pHW010 (provided by Gebre Woldegiorgis, Beaverton, Oreg. Published in Woldegiorgis G. et al. Biochem. Biophys. Res. Commun. 2004, 325, 660-4.) was linearized in the GAP gene promoter by digestion with AvrII and integrated into the GAPp locus of P. pastoris GS115 by electroporation. Histidine prototrophic transformants were selected on YND plates and grown on YND medium. Mitochondria were isolated by disrupting the yeast cells with glass beads as previously described.
CPT activity was assayed by the forward exchange method using L-[^3H] carnitine as previously described (Nicot, C. et al., Biochem. Biophys. Res. Comm. 2004, 325, 2745-7). In a total volume of 0.5 mL, the standard enzyme assay mixture contained 0.2 mM L-[^3H]carnitine (˜5000 dpm/nmol), 80 μM palmitoyl-CoA, 20 mM HEPES (pH 7.0), 1% fatty acid-free albumin, and 40-75 mM KCl, with or without malonyl-CoA as indicated. Reactions were initiated by addition of isolated intact yeast mitochondria. The reaction was linear up to 4 min, and all incubations were done at 30° C. for 3 min. Reactions were stopped by addition of 6% perchloric acid and were then centrifuged at 2000 rpm for 7 min. The resulting pellet was suspended in water, and the product [^3H]palmitoylcarnitine was extracted with butanol at low pH. After centrifugation at 2000 rpm for 2 min, an aliquot of the butanol phase was transferred to a vial for radioactive counting.

SMILES: O=C(Oc1cc(OC(=O)c2cc(O)c(O)c(O)c2)c2ccccc2c1)c1cc(O)c(O)c(O)c1 [f, 1,3-bis[(3,4,5-trihydroxybenzoyl)oxy]naphthalene]
- IC50 [1]: 78.7 ± 4 µM
- IC50 [2]: > 150 µM
- effect on non-malignant cells / normal fibroblasts [2]: not affected
- effects in cell death / morphology changes in non-malignant cells [2]: No significant effects
- stimulation of CPT-1 activity (in words) [3]: did not stimulate CPT-1 activity; also recorded: without parallel stimulation of CPT-1 activity
- % CPT-1 activity [3]: 89 ± 4%

SMILES: O=C(Oc1ccc(OC(=O)c2cc(O)c(O)c(O)c2)c2ccccc12)c1cc(O)c(O)c(O)c1 [i, 1,4-bis[(3,4,5-trihydroxybenzoyl)oxy]naphthalene]
- IC50 [1]: 62.5 ± 10.6 µM
- IC50 [2]: > 150 µM
- effect on non-malignant cells / normal fibroblasts [2]: not affected
- effects in cell death / morphology changes in non-malignant cells [2]: No significant effects
- stimulation of CPT-1 activity (in words) [3]: did not stimulate CPT-1 activity; also recorded: without parallel stimulation of CPT-1 activity
- % CPT-1 activity [3]: 90 ± 5%
